Source: patent publication US20190076510A1, “PROTEIN KINASE C INHIBITION TO EXTEND TISSUE PLASMINOGEN ACTIVATOR TREATMENT FOR ISCHEMIC DISEASE” (THE REGENTS OF THE UNIVERSITY OF MICHIGAN, priority 2017, published 2019)

Tests used:
[1] = test system: photothrombotic MCAO mice; assay: MCAO-induced cerebral vascular permeability to fluorescent-labeled 70 kDa dextran; format: in vivo, mouse; settings: separate experiments
[2] = test system: vascular permeability in the eye; settings: in vivo; cited from earlier work
[3] = test system: photothrombotic MCAO mice; assay: Hemorrhagic transformation (ICH) after MCAO with late rtPA thrombolysis; format: in vivo, mouse; settings: rtPA given 5 hours after stroke
Excerpt: Transgenic mouse lines and commercially available laboratory mouse strains (Jackson Labs) were bred using standard procedures. These strains include wild-type C57BL/6J mice, and C57BL/6J mice with diet-induced obesity. Transgenic mice include mice deficient in tissue type plasminogen activator (tPA^−/−), mice expressing the S490A mutant of occludin, and mice expressing Cre under the vascular endothelium. The numbers of mice used are necessary to maintain the breeding colonies and to obtain statistical significance in the experiments. Mouse pups are weaned at 3 weeks of age. Mice are marked with standard mouse ear tags. […] Both male and female mice are used, but are initially analyzed separately. […]
Using the Tek promoter for control of stop flox expression, however, leads to 85% of bone marrow-derived cells expressing the gene as well as endothelial cells (Genesis. 2010 September; 48(9):563-7)). […] Expression of Tg:S490AOcc^+/+ reduced permeability induced by MCAO, as measured using 70 kDa dextran labeled with Texas Red (dextran). […] Five images surrounding the infarct were taken and mean pixel intensity was determined using Imaris software, averaged for each mouse with n of at least 8 mice. […]
In addition to these studies, the effect of the PKC-β inhibition on hemorrhagic transformation was measured after tPA induction in MCAO mice. […]

acute ischemic stroke = settings: intravenous rtPA within 3-4.5 hours; cited from earlier work

CN(C)C[C@@H]1CCn2cc(c3ccccc32)C2=C(C(=O)NC2=O)c2cn(c3ccccc23)CCO1 [LY333531]
reduction in cerebral permeability to dextran (surgical removal of ischemic region and penumbra, dye extraction) [1]: ~30%

CN(C)C[C@@H]1CCn2cc(c3ccccc32)C2=C(C(=O)NC2=O)c2cn(c3ccccc23)CCO1 [Ruboxistaurin®]
vascular permeability and edema in the eye [2]: shown to reduce vascular permeability and edema in the eye

rtPA: recombinant tissue plasminogen activator, thrombolytic
hemorrhagic transformation from late rtPA treatment (area of hemoglobin in serial brain sections) [3]: clear increase | patients having absolute benefit (acute ischemic stroke): 90 out of 1000
